Measured values: ChEMBL document CHEMBL6121000, “Corosolic acid and its derivatives targeting MCCC1 against insulin resistance and their hypoglycemic effect on type 2 diabetic mice” (Eur J Med Chem, 2025)
Activity calls are given as the source filed them. The rule behind the calls is not given here.

Key:
[1] = system: HepG2; experiment: Lipid lowering activity in human HepG2 cells assessed as inhibition of FFA-induced triglyceride content at 20 uM preincubated for 1 hr followed by FFA treatment for 24 hrs relative to control; type: functional
[2] = (§1) Cytotoxicity against human HepG2 cells assessed as cell viability at 80 uM incubated for 24 hrs by CCK8 assay relative to control; type: toxicity, cell-based; conditions: HepG2 cells, read-out: Activity
[3] = system: HepG2; experiment: Inhibition of insulin resistance in human HepG2 cells assessed as decrease in GlcN-induced glucose production at 20 uM preincubated for 1 hr followed by GlcN treatment for 18 hrs and subsequent insulin stimulation for 20 mins; type: functional, cell-based; conditions: time 19.33 hrs
[4] = system: HepG2; experiment: Cytotoxicity against human HepG2 cells assessed as cell survival at 10 to 40 uM by MTT assay; type: toxicity, cell-based; conditions: hepg2, 40 µM, dose 10-40 µM
[5] = system: Mus musculus; experiment: Hypoglycemic activity in HFD-fed STZ-induced diabetic C57BL/6J mouse model assessed as improvement in weight loss at 200 mg/kg, po administered everyday for 3 weeks; type: functional, organism-based
[6] = system: HepG2; experiment: as §1; type: toxicity, cell-based; conditions: hepg2, 24 h, 80 µM

SMILES | viability at 24 h, 80 µM [2] [%] | inhibition [3] | further results
CC(=O)O[C@H]1CC[C@]2(C)[C@H]3CC=C4[C@@H]5[C@@H](C)[C@H](C)CC[C@]5(C(=O)OCc5ccccc5)CC[C@@]4(C)[C@]3(C)CC[C@H]2C1(C)C | > 80 | – | inhibition at 20 µM [1]: 58.5%
CC(=O)O[C@@H]1C[C@]2(C)[C@H]3CC=C4[C@@H]5[C@@H](C)[C@H](C)CC[C@]5(C(=O)NCCCNC(=O)OCC5c6ccccc6-c6ccccc65)CC[C@@]4(C)[C@]3(C)CC[C@H]2C(C)(C)[C@H]1OC(C)=O | > 80 | – | –
C[C@H]1[C@H](C)CC[C@]2(C(=O)O)CC[C@]3(C)C(=CC[C@@H]4[C@@]5(C)CC[C@H](O)C(C)(C)[C@@H]5CC[C@]43C)[C@H]12 [URSOLIC ACID] | 7.85 | – | –
CCOC(=O)[C@H](C)NC(=O)[C@]12CC[C@@H](C)[C@H](C)[C@H]1C1=CC[C@@H]3[C@@]4(C)C[C@@H](O)[C@H](O)C(C)(C)[C@@H]4CC[C@@]3(C)[C@]1(C)CC2 | > 80 | – | –
COC(=O)C(Cc1ccc(OC)cc1)NC(=O)[C@]12CC[C@@H](C)[C@H](C)[C@H]1C1=CC[C@@H]3[C@@]4(C)C[C@@H](O)[C@H](O)C(C)(C)[C@@H]4CC[C@@]3(C)[C@]1(C)CC2 (stereo partly specified) | > 80 | Active | –
CC(=O)O[C@@H]1C[C@]2(C)[C@H]3CC=C4[C@@H]5[C@@H](C)[C@H](C)CC[C@]5(C(=O)O)CC[C@@]4(C)[C@]3(C)CC[C@H]2C(C)(C)[C@H]1OC(C)=O | 58.7 | – | –
C[C@H]1[C@H](C)CC[C@]2(C(=O)On3nnc4ccccc43)CC[C@]3(C)C(=CC[C@@H]4[C@@]5(C)C[C@@H](O)[C@H](O)C(C)(C)[C@@H]5CC[C@]43C)[C@H]12 | > 80 | – | –
C[C@H]1[C@H](C)CC[C@]2(C(=O)NCCCNC(=O)CCCC[C@H]3SC[C@H]4NC(=O)N[C@H]43)CC[C@]3(C)C(=CC[C@@H]4[C@@]5(C)C[C@@H](O)[C@H](O)C(C)(C)[C@@H]5CC[C@]43C)[C@H]12 | – | – | Activity [4]: Non-toxic
CC(=O)O[C@@H]1C[C@]2(C)[C@H]3CC=C4[C@@H]5[C@@H](C)[C@H](C)CC[C@]5(C(=O)NCCCN)CC[C@@]4(C)[C@]3(C)CC[C@H]2C(C)(C)[C@H]1OC(C)=O | 8.9 | Active | –
C[C@H]1[C@H](C)CC[C@]2(C(=O)O[C@H]3O[C@H](CO)C(O)[C@@H](O)[C@H]3O)CC[C@]3(C)C(=CC[C@@H]4[C@@]5(C)C[C@@H](O)[C@H](O)C(C)(C)[C@@H]5CC[C@]43C)[C@H]12 (single isomer, unassigned) | 64.5 | – | –
C[C@H]1[C@H](C)CC[C@]2(C(=O)OCc3ccccc3)CC[C@]3(C)C(=CC[C@@H]4[C@@]5(C)CCC(=O)C(C)(C)[C@@H]5CC[C@]43C)[C@H]12 | > 80 | – | –
CCOC(=O)[C@H](C)NC(=O)[C@]12CC[C@@H](C)[C@H](C)[C@H]1C1=CC[C@@H]3[C@@]4(C)C[C@@H](OC(C)=O)[C@H](OC(C)=O)C(C)(C)[C@@H]4CC[C@@]3(C)[C@]1(C)CC2 | > 80 | Active | inhibition at 20 µM [1]: 63.1%
C[C@H]1[C@H](C)CC[C@]2(C(=O)OCc3ccccc3)CC[C@]3(C)C(=CC[C@@H]4[C@@]5(C)C[C@@H](O)[C@H](O)C(C)(C)[C@@H]5CC[C@]43C)[C@H]12 | 12.3 | – | –
CC(=O)OC[C@H]1O[C@H](OC(=O)[C@]23CC[C@@H](C)[C@H](C)[C@H]2C2=CC[C@@H]4[C@@]5(C)C[C@@H](O)[C@H](O)C(C)(C)[C@@H]5CC[C@@]4(C)[C@]2(C)CC3)C(OC(C)=O)[C@H](OC(C)=O)C1OC(C)=O (single isomer, unassigned) | > 80 | Active | –
CN(C)C(=N)NC(=N)N | – | – | Activity [5]: Active
CCCCC(=O)NCCCNC(=O)[C@]12CC[C@@H](C)[C@H](C)[C@H]1C1=CC[C@@H]3[C@@]4(C)C[C@@H](O)[C@H](O)C(C)(C)[C@@H]4CC[C@@]3(C)[C@]1(C)CC2 | > 80 | Active | –
COC(=O)[C@H](Cc1ccccc1)NC(=O)[C@]12CC[C@@H](C)[C@H](C)[C@H]1C1=CC[C@@H]3[C@@]4(C)C[C@@H](O)[C@H](O)C(C)(C)[C@@H]4CC[C@@]3(C)[C@]1(C)CC2 | > 80 | Active | –
CCOC(=O)[C@H](CO)NC(=O)[C@]12CC[C@@H](C)[C@H](C)[C@H]1C1=CC[C@@H]3[C@@]4(C)C[C@@H](O)[C@H](O)C(C)(C)[C@@H]4CC[C@@]3(C)[C@]1(C)CC2 | > 80 | Active | –
CCOC(=O)[C@H](CS)NC(=O)[C@]12CC[C@@H](C)[C@H](C)[C@H]1C1=CC[C@@H]3[C@@]4(C)C[C@@H](O)[C@H](O)C(C)(C)[C@@H]4CC[C@@]3(C)[C@]1(C)CC2 | > 80 | Active | –
C[C@H]1[C@H](C)CC[C@]2(C(=O)NC(=O)NC3CC3)CC[C@]3(C)C(=CC[C@@H]4[C@@]5(C)C[C@@H](O)[C@H](O)C(C)(C)[C@@H]5CC[C@]43C)[C@H]12 | > 80 | Active | –
COC(=O)CCCCNC(=O)[C@]12CC[C@@H](C)[C@H](C)[C@H]1C1=CC[C@@H]3[C@@]4(C)C[C@@H](O)[C@H](O)C(C)(C)[C@@H]4CC[C@@]3(C)[C@]1(C)CC2 | > 80 | Active | –
C[C@H]1[C@H](C)CC[C@]2(C(=O)NCCCN)CC[C@]3(C)C(=CC[C@@H]4[C@@]5(C)C[C@@H](O)[C@H](O)C(C)(C)[C@@H]5CC[C@]43C)[C@H]12 | > 80 | – | –
C[C@H]1[C@H](C)CC[C@]2(C(=O)OCc3ccccc3)CC[C@]3(C)C(=CC[C@@H]4[C@@]5(C)CC[C@H](O)C(C)(C)[C@@H]5CC[C@]43C)[C@H]12 | > 80 | Active | –
C[C@H]1[C@H](C)CC[C@]2(C(=O)NCCCCCC(=O)O)CC[C@]3(C)C(=CC[C@@H]4[C@@]5(C)C[C@@H](O)[C@H](O)C(C)(C)[C@@H]5CC[C@]43C)[C@H]12 | – | – | Activity [6]: Non-toxic
C[C@H]1[C@H](C)CC[C@]2(C(=O)NCCCNC(=O)c3ccccc3)CC[C@]3(C)C(=CC[C@@H]4[C@@]5(C)C[C@@H](O)[C@H](O)C(C)(C)[C@@H]5CC[C@]43C)[C@H]12 | > 80 | – | –
CCOC(=O)CNC(=O)[C@]12CC[C@@H](C)[C@H](C)[C@H]1C1=CC[C@@H]3[C@@]4(C)C[C@@H](O)[C@H](O)C(C)(C)[C@@H]4CC[C@@]3(C)[C@]1(C)CC2 | > 80 | – | –
CCOC(=O)[C@H](CC(C)C)NC(=O)[C@]12CC[C@@H](C)[C@H](C)[C@H]1C1=CC[C@@H]3[C@@]4(C)C[C@@H](O)[C@H](O)C(C)(C)[C@@H]4CC[C@@]3(C)[C@]1(C)CC2 | > 80 | Active | –
